Results: US11560368B2, “Apoptosis signal-regulating kinase 1 inhibitors and methods of use thereof” (Enanta Pharmaceuticals, Inc., priority 2017, dated 2023)

Target: ASK1 kinase (Homo sapiens (Human), UniProt Q99683)
Experiment: ASK1 kinase inhibition, HTRF KinEASE-STK TR-FRET assay
Assay type: biochemical
Conditions: 5 nM ASK1, 1 uM STK3 peptide substrate, 100 uM ATP, 3 hours
Method: The ability (IC50) of compounds to inhibit ASK1 kinase activity was determined by HTRF® KinEASE™ Assay System.
ASK1 was purchased from Thermofisher (Catalogue # PV4011), ATP was purchased from Sigma (Catalogue # A7699), HTRF® KinEASE™ Assay System was obtained from Cisbio (Bedford, Mass.). ½ A Area plate was purchased from Perkin Elmer (Catalogue # #6005560). HTRF® KinEASE™-STK is a generic method for measuring serine/threonine kinase activities using a time-resolved fluorescence resonance energy transfer (TR-FRET) immunoassay. The IC50 value for each compound was determined in the presence of compound (various concentration from 0 to 10 μM) and a fixed amount of ATP and peptide substrates. The test compound, 1 uM STK3 peptide substrate, and 5 nM of ASK1 kinase are incubated with kinase reaction buffer containing 50 mM HEPES pH 7.5, 0.01% BRU-35, 10 mM MgCl2, and 1 mM EGTA for 30 minutes. 100 uM ATP is added to start kinase reaction and incubated for 3 hours. The STK3-antibody labeled with Eu^3+-Cryptate and 125 nM streptavidin-XL665 are mixed in a single addition with stop reagents provided by the Cisbio kit used to stop the kinase reaction. Fluorescence is detected using an Envision Multilabeled 2014 reader from PerkinElmer. The Fluorescence is measured at 615 nm (Cryptate) and 665 nm (XL665) and a ratio of 665 nm/615 nm is calculated for each well. […] IC50 was determined by XLfit 5.3. […]

ASK1 kinase, sequence (Q99683 whole entry): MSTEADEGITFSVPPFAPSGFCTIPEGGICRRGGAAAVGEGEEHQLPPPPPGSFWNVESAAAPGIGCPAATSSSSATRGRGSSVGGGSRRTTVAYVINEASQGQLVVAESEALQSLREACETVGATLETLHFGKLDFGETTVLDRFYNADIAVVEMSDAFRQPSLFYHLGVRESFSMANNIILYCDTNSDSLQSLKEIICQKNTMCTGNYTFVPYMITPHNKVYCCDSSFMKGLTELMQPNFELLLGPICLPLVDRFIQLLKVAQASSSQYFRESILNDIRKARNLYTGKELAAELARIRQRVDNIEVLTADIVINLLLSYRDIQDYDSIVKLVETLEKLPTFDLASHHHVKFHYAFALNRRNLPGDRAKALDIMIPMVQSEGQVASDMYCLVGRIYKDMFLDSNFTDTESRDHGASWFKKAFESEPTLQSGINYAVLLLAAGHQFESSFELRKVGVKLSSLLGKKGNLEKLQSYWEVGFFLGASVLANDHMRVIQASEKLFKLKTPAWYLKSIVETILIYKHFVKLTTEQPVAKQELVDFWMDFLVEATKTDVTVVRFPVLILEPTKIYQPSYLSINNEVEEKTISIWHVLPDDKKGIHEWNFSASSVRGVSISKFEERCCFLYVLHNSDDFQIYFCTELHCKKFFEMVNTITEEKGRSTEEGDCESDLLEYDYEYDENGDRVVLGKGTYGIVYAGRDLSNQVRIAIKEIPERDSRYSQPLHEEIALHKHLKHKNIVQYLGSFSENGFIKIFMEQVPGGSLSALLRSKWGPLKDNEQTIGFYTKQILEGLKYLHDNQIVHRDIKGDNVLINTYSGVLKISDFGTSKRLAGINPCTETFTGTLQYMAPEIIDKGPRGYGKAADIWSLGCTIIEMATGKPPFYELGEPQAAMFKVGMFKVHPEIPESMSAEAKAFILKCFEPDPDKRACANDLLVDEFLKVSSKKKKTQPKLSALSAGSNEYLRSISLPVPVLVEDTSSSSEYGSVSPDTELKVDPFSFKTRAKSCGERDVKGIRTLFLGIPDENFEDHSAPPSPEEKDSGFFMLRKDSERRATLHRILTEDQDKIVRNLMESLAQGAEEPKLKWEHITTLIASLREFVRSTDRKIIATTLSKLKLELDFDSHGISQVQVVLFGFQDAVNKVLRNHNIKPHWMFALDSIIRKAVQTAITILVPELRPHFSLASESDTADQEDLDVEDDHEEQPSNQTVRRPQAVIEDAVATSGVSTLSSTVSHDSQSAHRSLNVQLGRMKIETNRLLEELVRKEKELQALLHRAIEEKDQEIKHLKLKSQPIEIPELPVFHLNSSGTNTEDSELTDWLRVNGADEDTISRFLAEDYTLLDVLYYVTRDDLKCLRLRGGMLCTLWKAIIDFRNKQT

IC50: 100 to 1000 nM
SMILES: Cc1cc(F)c(C(=O)Nc2cccc(-c3nnnn3C(C)C)n2)cc1-n1cnc(C(F)(F)F)c1 [Example 2b]
